The values below come from ChEMBL document CHEMBL3526076, “Species-dependent and receptor-selective action of bilobalide on the function of constitutive androstane receptor and pregnane X receptor” (Drug Metab Dispos, 2012).

The target in data set [1] is T1, Nuclear receptor subfamily 1 group I member 3 (Homo sapiens, UniProt Q14994).
T1 sequence (Q14994 whole entry): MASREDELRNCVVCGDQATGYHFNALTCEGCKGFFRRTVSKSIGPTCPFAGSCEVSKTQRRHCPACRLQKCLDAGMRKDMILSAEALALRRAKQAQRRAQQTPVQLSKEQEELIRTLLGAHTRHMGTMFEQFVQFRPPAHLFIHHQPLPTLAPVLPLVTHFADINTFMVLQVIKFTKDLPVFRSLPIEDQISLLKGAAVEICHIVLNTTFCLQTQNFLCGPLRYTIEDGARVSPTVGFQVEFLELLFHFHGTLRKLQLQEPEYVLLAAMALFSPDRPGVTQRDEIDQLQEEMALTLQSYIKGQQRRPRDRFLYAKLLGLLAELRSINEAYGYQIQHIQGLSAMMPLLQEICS
Description: Activation of CAR in human Hu1108 hepatocytes assessed as increase in CYP2B6-mediated bupropion hydroxylation at 10 to 50 uM after 24 hrs by LC-MS analysis. The data set is classed as ADME, cell-based, Hepatocyte.

The target of data set [2] is T2, Nuclear receptor subfamily 1 group I member 2 (Rattus norvegicus, UniProt Q9R1A7).
T2 sequence (Q9R1A7 whole entry): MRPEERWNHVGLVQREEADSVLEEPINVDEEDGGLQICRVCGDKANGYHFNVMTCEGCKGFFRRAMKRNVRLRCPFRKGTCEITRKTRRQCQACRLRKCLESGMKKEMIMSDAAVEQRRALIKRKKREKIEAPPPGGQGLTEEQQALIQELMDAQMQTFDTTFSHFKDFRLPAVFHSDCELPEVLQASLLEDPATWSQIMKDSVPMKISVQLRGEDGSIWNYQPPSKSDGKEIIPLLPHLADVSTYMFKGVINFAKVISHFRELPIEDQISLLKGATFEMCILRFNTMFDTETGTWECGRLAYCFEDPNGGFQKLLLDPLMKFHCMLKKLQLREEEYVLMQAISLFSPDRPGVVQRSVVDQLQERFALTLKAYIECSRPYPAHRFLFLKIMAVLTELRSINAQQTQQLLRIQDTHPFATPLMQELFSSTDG
The data set is described as follows: Activation of PXR in rat hepatocytes assessed as upregulation of CYP3A23 mRNA expression at 1 to 30 uM after 24 hrs by RT-PCR analysis. The data set is classed as ADME, cell-based, Hepatocyte.

Data set [3] deals with T2, Nuclear receptor subfamily 1 group I member 2. The data set is described as follows: Antagonist activity at rat PXR expressed in human HepG2 cells coexpressing CYP3A4 assessed as inhibition of PCN-induced receptor activation up to 100 uM after 24 hrs by dual luciferase reporter gene assay. The data set is classed as ADME, cell-based. The following applies: hepg2, 24 h. (In general: Reporter assays use an easily measured gene product as a stand-in for the process of interest.)

Data set [4] concerns CAR mRNA. Description: Effect on CAR mRNA expression in rat hepatocytes at 1 uM by RT-PCR analysis relative to control. The data set is classed as ADME, cell-based, Hepatocyte. The following applies: read-out: FC.
The test system of data set [5] is CAR mRNA. The data set is described as follows: Effect on CAR mRNA expression in rat hepatocytes at 3 uM by RT-PCR analysis relative to control. The data set is classed as ADME, cell-based, Hepatocyte. The following applies: read-out: FC.
For data set [6], the system named is CAR mRNA. The data set is described as follows: Effect on CAR mRNA expression in human hepatocytes at 10 uM by RT-PCR analysis relative to control. The format is ADME, cell-based, Hepatocyte. The following applies: read-out: FC.
The subject of data set [7] is CAR mRNA. The data set is described as follows: Effect on CAR mRNA expression in human hepatocytes at 50 uM by RT-PCR analysis relative to control. The data set is classed as ADME, cell-based, Hepatocyte. The following applies: read-out: FC.
The next data set relates to PXR mRNA. The data set is described as follows: Effect on PXR mRNA expression in human hepatocytes at 25 uM by RT-PCR analysis relative to control. The data set is classed as ADME, cell-based, Hepatocyte. The following applies: read-out: FC.
Data set [8] has as its target T3, Nuclear receptor subfamily 1 group I member 3 (Rattus norvegicus, UniProt Q9QUS1).
T3 sequence (Q9QUS1 whole entry): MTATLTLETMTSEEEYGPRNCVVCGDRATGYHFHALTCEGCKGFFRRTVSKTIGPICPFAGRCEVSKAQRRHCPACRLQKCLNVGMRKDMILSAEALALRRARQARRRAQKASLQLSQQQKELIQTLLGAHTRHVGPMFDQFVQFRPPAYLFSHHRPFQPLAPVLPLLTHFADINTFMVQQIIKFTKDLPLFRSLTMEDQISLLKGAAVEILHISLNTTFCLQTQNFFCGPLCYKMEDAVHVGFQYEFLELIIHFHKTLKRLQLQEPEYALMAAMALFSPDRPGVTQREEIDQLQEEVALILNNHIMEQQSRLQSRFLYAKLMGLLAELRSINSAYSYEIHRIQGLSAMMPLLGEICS
Description: Activation of CAR in rat hepatocytes assessed as upregulation of CYP2B1 mRNA expression at 3 uM after 24 hrs by RT-PCR analysis relative to phenobarbital. The format is ADME, cell-based, Hepatocyte.

For another data set, the system named is Hepatocyte. Description: Cytotoxicity against rat hepatocytes at 1 to 100 uM after 24 hrs by lactate dehydrogenase assay. The format is cell-based.

Molecules are shown by their SMILES.

Consider `CC(C)(C)[C@]1(O)C[C@@H]2OC(=O)C[C@@]23C(=O)O[C@@H]2OC(=O)[C@H](O)[C@]213`, for which the Activity entry is “Not Active” in [1], “Not Active” in data set [2], 6% in [8] and “Non-toxic” with Hepatocyte. Moreover, in data set [3], the “inhibition (INH)” value was “Not Active”. Further, the fold induction at 1 µM with CAR mRNA [4] was determined as 1.3. The fold induction at 3 µM in the data set on CAR mRNA [5] came to 1.3. Moreover, in the data set with CAR mRNA [6], the fold induction at 10 µM came to 1.4. The fold induction at 50 µM with CAR mRNA [7] was determined as 1.4. In addition, the fold induction at 25 µM in the data set with PXR mRNA amounted to 1.2.
